Source: PubChem BioAssay (NCI)
Where “and” joins values, the source holds several entries; their conditions need not be identical. Equal values may be shown once.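 Interpolation was linear, between the two tested concentrations surrounding the appropriate level; five concentrations were tested over 48 hours in 96-well plates. At the GI50, growth is halved. TGI denotes the concentration required for complete inhibition of growth.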

Columns and labels:
Experiment in all cases: DTP human tumour cell line panel, 48 h
[1] = test system: KM12 colon
[2] = test system: OVCAR-4 ovarian
[3] = test system: OVCAR-8 ovarian
[4] = test system: RPMI-8226 leukemia
[5] = test system: SF-268 CNS
[6] = test system: SK-MEL-5 melanoma
[7] = test system: T-47D breast
[8] = test system: U251 CNS
[9] = test system: MOLT-4 leukemia
[10] = test system: HL-60(TB) leukemia

SMILES	GI50 [1] [µM]	TGI [1] [µM]	GI50 [2] [µM]	TGI [2] [µM]	GI50 [3] [µM]	TGI [3] [µM]	GI50 [4] [µM]	TGI [4]	GI50 [5] [µM]	TGI [5] [µM]	GI50 [6] [µM]	TGI [6] [µM]	GI50 [7] [µM]	TGI [7] [µM]	GI50 [8] [µM]	TGI [8] [µM]	TGI [9] [µM]	GI50 [10] [µM]	TGI [10] [µM]	GI50 [9] [µM]
COc1ccccc1/C=C/C(=O)c1c(O)cc2occc2c1OC	> 100	> 100	> 100	> 100	53.8	> 100	23.5	> 100 µM	22.2	> 100	> 100	> 100	55.9	> 100	18.9	> 100				
CCNCCC1(CC)C(=O)NC(=O)NC1=O		> 100		> 100		> 100		> 100 µM		> 100		> 100		> 100		> 100	> 100			
O=C1/C=C/[C@@H](O)[C@@H]2C[C@@H](O)C[C@H]2/C=C/CCC[C@H](CCc2ccc(C(F)(F)F)cc2)O1			0.198	2.78	0.219	> 100	0.282	0.806 µM	0.371	> 100	0.0257	0.0647	0.318	59.8	0.272	21.3	0.832	0.346	2.74	0.32
CCC(=O)C1(c2ccccc2)CCN(C)CC1		> 100		> 100		> 100		> 100 µM		> 100		> 100		> 100		> 100	> 100		> 100	
COc1ccc(CCN2CCCN3C2=Nc2ccccc2S3(=O)=O)cc1	0.451	> 100	0.912	> 100	0.802	> 100	0.563	53.5 µM	2.06	> 100	0.357	16.4	0.56	> 100	0.388	> 100	> 100			0.464
C=CC(=O)N1C/C(=C\c2ccccc2)C(=O)/C(=C/c2ccccc2)C1	0.443	2.4		6.6	0.8	4.94	0.17	0.871 µM and 1.08 µM		5.61		3.12		18.4	0.376	2.62	4.5	0.805	7.4	0.562
CC(C)CC1C(=O)N2CCC[C@H]2C2(O)O[C@](NC(=O)C3C=C4c5cccc6[nH]c(Br)c(c56)C[C@H]4N(C)C3)(C(C)C)C(=O)N12 (stereo not given in full)	6.23	> 100	5.78	> 100		> 100		> 100 µM	9.02	> 100	4.57	> 100	2.9	> 100	9.4	> 100	> 100	3.8	29.3	5.06
COc1cc2c(F)nccc2cc1C(=O)N[C@@H](c1ccc(F)c(Cl)c1)[C@@H]1C[C@@H](O)CN1	1.69	19.3	8.59	24.6	13.2	28.9	7.72	40.1 µM	3.64	21.6	14.7	28.1	0.0552	21.3	1.49	17.8	> 41.6	2.11	5.61	0.188
COC(=O)[C@H]1C(=O)[C@@]2(C)[C@H]([C@H](OC(=O)c3ccccc3)[C@]3(O)C[C@H](OC(=O)[C@H](O)[C@@H](NC(=O)c4ccc(F)cc4)c4ccccc4)C(C)=C1C3(C)C)[C@]1(OC(C)=O)CO[C@@H]1C[C@@H]2O	0.00629		0.633	> 25	0.0171	> 25	0.00484	0.271 µM	0.0151	> 25	0.0104	> 9.79	0.0106	> 25	0.0103	> 25	3.42	0.00614	0.0184	0.0101
O=C(NCCc1ccccc1)C(c1ccccc1)(c1ccccc1)c1ccccc1	3.19	11.3	> 100	> 100	1.62	4.44	15.9	> 100 µM	30	> 100	8.97	21.4	30.4	> 100	2.93	12.4	> 100	38.7	> 100	> 100
C=C(C)[C@@H]1CC[C@]2(C(N)=O)CC[C@]3(C)[C@H](CC[C@@H]4[C@@]5(C)CC[C@H](O)C(C)(C)[C@@H]5CC[C@]43C)[C@@H]12	3.2	11.9	3.54	19.8	3.12	> 100	3.53	24.9 µM	4.34	> 100	5.22	19.2	4.55	26.9	2.54	7.16	18.3	3.59	17.5	3.43
O=C(CSc1nc2ccccc2nc1-c1ccccc1)Nc1ccc(Cl)cc1	59.4	> 100	13.6	> 100	25.5	> 100	92.3	> 100 µM	15.5	51.3	19.3	> 100	13	> 100	23.6	67.7	> 100			> 100
COC(=O)NC1(NC(=O)OC)NC(=O)c2cc(OC)c(OC)cc2N1		> 100				> 100		> 100 µM		> 100		> 100		> 100						
CCOC(CCCNCCCn1c2c(c3cc(OC)c(OC)cc3c1=O)C(=O)c1cc3c(cc1-2)OCO3)OCC	5.93	12.1	6.69	13.1	5.27	11.2	0.308	8.45 µM	2.97	10.4	7.62	14.3	7.76	14.4	1.51	9.44		5.25	11.1	
COc1c2ccoc2cc2oc(=O)ccc12				> 100		> 100		> 100 µM		> 100		> 100		> 100		> 100	> 100		> 100	
CNC1C(O)C(OC2C(N)CC(N)C(OC3OC(CN)=CCC3N)C2O)OCC1(C)O (stereo not given)		> 100				> 100		> 100 µM		> 100		> 100		> 100		> 100	> 100		> 100	
N.N.N.N.O=NN1CCCCCC1(P(=O)([O-])[O-])P(=O)([O-])[O-].[Pt+4].[Pt+4]	> 100	> 100	> 100	> 100	> 100	> 100	> 100	> 100 µM	> 100	> 100	> 100	> 100			> 100	> 100	> 100	> 100	> 100	> 100
CCCCCCCCCCCCNC(=O)[C@H]1CSC(c2cc3ccccc3s2)N1 (stereo not given in full)	1.1	3.55	0.849	1.97	2.23	8.53	6	15.3 µM			4.34	8.72	5.5	12.3	2.61	7.19	1.37	0.154	8.69	0.657
CCN(CC)CCCC(C)Nc1cc(-c2ccc(C(F)(F)F)cc2)c(C#N)c2nc3ccccc3n12 (stereo not given)	3.29	12.6	3.12	10.1	2.41	5.51	1.96	5.22 µM	1.9	4.43			2.23	5.45	2.04	4.16	12.1	2.1	4.98	3.19
O=C1Nc2cc(Cl)ccc2N=CC1NC(=O)C(c1ccccc1)c1ccccc1Cl (stereo not given)		> 100		> 100		> 100		> 100 µM		> 100		> 100				> 100	> 100		> 100	
COC(=O)C(Cc1cnc[nH]1)NC(=O)CNC(=O)CCCn1c(=O)c2c3ccccc3n(C)c2n2nnc(-c3ccccc3)c12 (stereo not given)	> 100	> 100	> 100	> 100	> 100	> 100	> 100	> 100 µM	> 100	> 100	> 100	> 100	> 100	> 100	> 100	> 100	> 100			> 100
